Reference: patent publication US9475815B2, “Substituted benzothienyl-pyrrolotriazines and uses thereof” (Bayer Intellectual Property GmbH, priority 2012, dated 2016)
Counter-ions that a name gives are not always drawn. Like-named read-outs stand apart in the source and are kept apart here.

How the values were obtained:
human FGFR-1 = human FGFR-1 (Homo sapiens, UniProt P11362); assay: FGFR-1 high ATP kinase assay (TR-FRET)
human FGFR-3 = human FGFR-3 (Homo sapiens (Human), UniProt P22607); assay: FGFR-3 kinase assay (TR-FRET); type: biochemical; details: 10 μM ATP, 15 min pre-incubation with enzyme
human FGFR-3, sequence (P22607 397-806): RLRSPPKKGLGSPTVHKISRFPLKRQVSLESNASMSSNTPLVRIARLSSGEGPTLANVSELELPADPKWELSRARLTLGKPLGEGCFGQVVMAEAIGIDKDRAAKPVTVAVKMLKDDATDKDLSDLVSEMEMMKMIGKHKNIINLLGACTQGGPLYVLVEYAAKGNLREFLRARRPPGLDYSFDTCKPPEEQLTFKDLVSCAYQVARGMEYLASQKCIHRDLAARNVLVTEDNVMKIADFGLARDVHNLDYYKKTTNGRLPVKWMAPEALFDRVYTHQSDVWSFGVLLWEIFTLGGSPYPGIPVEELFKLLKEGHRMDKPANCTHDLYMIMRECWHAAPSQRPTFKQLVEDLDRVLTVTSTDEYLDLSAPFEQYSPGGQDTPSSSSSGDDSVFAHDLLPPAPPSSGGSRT

[1] = tested on: Human umbilical vein endothelial cells (HUVEC); assay: Inhibition of growth factor-mediated cell proliferation (hFGF-2); type: cell-based; details: 72 h exposure, hFGF-2 stimulated, from averaged pIC50 values
Procedure: Human umbilical vein endothelial cells (HUVEC) were obtained from Cellsystems (FC-0003) and grown in Vasculife VEGF complete medium (Cellsystems, LL-1020) containing 2% fetal bovine serum (FBS) at 37° C. and 5% CO2. The cells were used for proliferation assays up to passage 7.
The HUVEC cells were harvested using accutase (PAA, L11-007) and seeded in columns 2 to 12 of 96-well plates (Falcon MICROTEST tissue culture plate 96-well flat bottom, BD 353075, or μCLEAR-PLATE, black, 96-well, Greiner Bio-One, No. 655090) at a cell density of 2500 cells/well in 100 μl Vasculife VEGF complete medium with column 1 remaining empty as blank. Cells were allowed to incubate at 37° C. and 5% CO2 for at least 6 h. Then, the cells were washed once with PBS and starved overnight in Vasculife basal medium (Cellsystems, LM-0002) containing heparin, ascorbate and L-glutamine (components of the Vasculife Life Factors Kit, Cellsystems, LL-1020) as well as 0.2% FBS.
After about 18 h, the starving medium was discarded, and the cells were exposed for 72 h to 9 consecutive log or half-log concentrations of test compound in the range of 10 pM to 30 μM and to 5, 10 or 20 ng/ml hFGF-2 (recombinant human FGF basic, R&D Systems, 233-FB) in 100 μl starving medium. 10 mM stock solutions of test compounds in DMSO were diluted to 200× final concentration in DMSO resulting in a final DMSO concentration of 0.5% in all wells. Controls consisted of cells grown in starving medium only and of cells grown in hFGF-2 containing starving medium with 0.5% DMSO. To determine cell proliferation, 5 μl Alamar Blue solution (Biosource, DAL1100) was added to each well (1:20 dilution), and the cells were allowed to incubate for further 4 h at 37° C. and 5% CO2 before measuring fluorescence (ex. 535 nm, em. 595 nm) with a Spectrafluor Plus Tecan plate reader (XFLUOR4 version 4.20). In some experiments, an ATP Determination Kit (BIAFFIN GmbH, LBR-T100) was used according to the manufacturer's instructions. In each experiment, samples were assayed in triplicate, and the standard deviations were determined GraphPad Prism 5 software was used to analyze the data and to obtain IC50 values. All test compounds were assayed 2 to 10 times in independent experiments and similar results were obtained.

human mTOR = human mTOR (Homo sapiens (Human), UniProt P42345); assay: mTOR kinase assay (TR-FRET, for comparative purposes); type: biochemical; details: for inhibition at 1 µM: read-out: mTOR % inhibition @ 1 μM, 1 μM test compound, 40 μM ATP, mean values
human mTOR, sequence (P42345 1360-2549): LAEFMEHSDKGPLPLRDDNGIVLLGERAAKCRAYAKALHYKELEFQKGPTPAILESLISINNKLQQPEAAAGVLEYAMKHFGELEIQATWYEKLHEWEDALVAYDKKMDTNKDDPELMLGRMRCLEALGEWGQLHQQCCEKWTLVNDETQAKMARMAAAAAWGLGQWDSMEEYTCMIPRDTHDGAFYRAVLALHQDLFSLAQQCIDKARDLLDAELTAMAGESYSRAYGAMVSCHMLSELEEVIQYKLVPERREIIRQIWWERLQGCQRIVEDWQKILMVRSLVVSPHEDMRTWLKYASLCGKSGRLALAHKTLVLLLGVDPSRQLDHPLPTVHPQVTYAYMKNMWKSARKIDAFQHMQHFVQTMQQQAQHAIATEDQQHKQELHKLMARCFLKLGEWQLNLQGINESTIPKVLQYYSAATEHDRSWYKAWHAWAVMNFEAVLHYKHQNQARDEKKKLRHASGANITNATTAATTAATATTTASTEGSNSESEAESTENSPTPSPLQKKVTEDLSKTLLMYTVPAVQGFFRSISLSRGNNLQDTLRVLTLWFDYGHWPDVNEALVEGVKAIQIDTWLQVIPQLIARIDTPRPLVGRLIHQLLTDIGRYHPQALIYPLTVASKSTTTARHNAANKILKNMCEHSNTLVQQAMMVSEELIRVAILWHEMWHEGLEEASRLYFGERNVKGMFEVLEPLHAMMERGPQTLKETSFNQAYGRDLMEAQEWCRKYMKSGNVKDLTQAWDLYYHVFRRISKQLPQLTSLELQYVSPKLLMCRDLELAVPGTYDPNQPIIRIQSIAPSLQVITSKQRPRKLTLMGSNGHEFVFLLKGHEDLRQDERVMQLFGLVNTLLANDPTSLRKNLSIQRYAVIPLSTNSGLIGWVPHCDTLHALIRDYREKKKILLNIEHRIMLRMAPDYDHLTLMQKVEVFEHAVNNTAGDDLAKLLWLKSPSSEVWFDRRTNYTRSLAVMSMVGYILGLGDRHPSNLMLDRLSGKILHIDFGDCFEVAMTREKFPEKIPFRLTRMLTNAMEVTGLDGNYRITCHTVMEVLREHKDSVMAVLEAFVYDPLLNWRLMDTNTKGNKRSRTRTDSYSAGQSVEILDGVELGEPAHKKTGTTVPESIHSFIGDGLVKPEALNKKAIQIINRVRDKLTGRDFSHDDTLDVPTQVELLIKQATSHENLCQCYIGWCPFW
Procedure: mTOR inhibitory activity of the compounds of the present invention was quantified employing the TR-FRET based mTOR assay as described in the following paragraphs:
Test compounds were dissolved in DMSO to generate 10 mM stock solutions. These solutions were first 10-fold diluted by 100% DMSO to get 1 mM solutions in 100% DMSO, then 100-fold diluted by 50% DMSO to get 10 μM solutions in 50% DMSO.
(final concentration in the 10 μl assay volume=1 nM) in FRET buffer.
For this, the fluorescence emissions at 495 nm and 520 nm after excitation at 340 nm was measured in an Envision 2104 multilabel reader (Perkin-Elmer).

human FGFR-1, sequence (P11362 22-822 limits assumed): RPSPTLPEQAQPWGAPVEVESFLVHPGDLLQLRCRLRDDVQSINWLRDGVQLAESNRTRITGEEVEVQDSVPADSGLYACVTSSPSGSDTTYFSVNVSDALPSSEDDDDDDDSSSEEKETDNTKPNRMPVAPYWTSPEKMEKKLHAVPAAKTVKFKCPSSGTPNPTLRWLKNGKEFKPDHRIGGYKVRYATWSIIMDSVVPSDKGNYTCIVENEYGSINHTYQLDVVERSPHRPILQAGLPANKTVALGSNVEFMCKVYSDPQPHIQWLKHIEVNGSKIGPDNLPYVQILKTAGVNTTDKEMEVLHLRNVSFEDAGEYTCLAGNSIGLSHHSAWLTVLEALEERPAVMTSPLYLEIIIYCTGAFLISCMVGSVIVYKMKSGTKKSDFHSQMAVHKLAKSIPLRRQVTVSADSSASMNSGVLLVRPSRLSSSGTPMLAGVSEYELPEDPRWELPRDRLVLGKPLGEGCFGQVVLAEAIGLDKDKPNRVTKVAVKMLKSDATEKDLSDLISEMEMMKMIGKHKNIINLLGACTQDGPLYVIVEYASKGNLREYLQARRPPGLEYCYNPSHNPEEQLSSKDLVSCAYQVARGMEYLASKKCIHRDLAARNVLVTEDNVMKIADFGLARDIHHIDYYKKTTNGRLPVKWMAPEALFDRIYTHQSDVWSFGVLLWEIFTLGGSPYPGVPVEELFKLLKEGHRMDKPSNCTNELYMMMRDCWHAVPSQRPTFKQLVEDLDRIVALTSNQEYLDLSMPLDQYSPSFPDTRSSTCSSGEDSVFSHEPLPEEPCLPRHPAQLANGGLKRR

Row | SMILES | IC50 (human FGFR-1) [µM] | IC50 (human FGFR-3) [µM] | IC50 ([1]; Homo sapiens, HUVEC, 72 h) [µM] | inhibition at 1 µM (human mTOR) [%] | IC50 (human FGFR-1; read-out: FGFR-1 (high ATP) IC50, 2 mM ATP, 15 min pre-incubation with enzyme) [µM] | IC50 [1] [µM] | mTOR % inhibition @ 1 μM (human mTOR; 1 μM test compound, 40 μM ATP, mean values) [%] | IC50 ([1]; trihydrochloride hydrate) [µM]
1 | COc1cc(C)cc2cc(-c3cc(CN[C@@H]4CCNC4=O)n4ncnc(N)c34)sc12 [Example 6, (3R)-3-({[4-Amino-5-(7-methoxy-5-methyl-1-benzothiophen-2-yl)pyrrolo[2,1-f][1,2,4]triazin-7-yl]methyl}amino)pyrrolidin-2-one dihydrochloride] | 0.0201 | 0.0217 | 0.022 | 33.5 |  |  |  | 
2 | CNC1CCN(Cc2cc(-c3cc4cc(C)cc(OC)c4s3)c3c(N)ncnn23)C1 (stereo not drawn) [Example 41] | 0.0073 |  | 0.049 | 25.9 |  |  |  | 
3 | COc1cc(C)cc2cc(-c3cc(CN4CCC(NCC(C)O)C4)n4ncnc(N)c34)sc12 (stereo not drawn) [Example 22] | 0.0093 | 0.0418 | 0.105 | 14 |  |  |  | 
4 | COc1cc(C)cc2cc(-c3cc(CN[C@H]4CCNC4=O)n4ncnc(N)c34)sc12 [Example 14] | 0.0436 | 0.0334 | 0.032 | 30.6 |  |  |  | 
5 | CCN(CC)C1CCN(Cc2cc(-c3cc4cc(C)cc(OC)c4s3)c3c(N)ncnn23)C1 (stereo not drawn) [Example 19] | 0.0147 | 0.0272 | 0.277 | 25.9 |  |  |  | 
6 | COc1cc(C)cc2cc(-c3cc(C(=O)NC4CCNC4=O)n4ncnc(N)c34)sc12 (racemic) [Example 98, rac-4-Amino-5-(7-methoxy-5-methyl-1-benzothiophen-2-yl)-N-(2-oxopyrrolidin-3-yl)pyrrolo-[2,1-f][1,2,4]triazine-7-carboxamide hydrochloride] | 0.009 | 0.0131 | 0.048 | 24.6 |  |  |  | 
7 | COc1cc(C)cc2cc(-c3cc(CN4CCC[C@H](N)C4)n4ncnc(N)c34)sc12 [Example 56] | 0.0175 | 0.0226 | 0.169 | 32.1 |  |  |  | 
8 | COc1cc(C)cc2cc(-c3cc(C(=O)N4CCNCC4)n4ncnc(N)c34)sc12 [Example 99, [4-Amino-5-(7-methoxy-5-methyl-1-benzothiophen-2-yl)pyrrolo[2,1-f][1,2,4]triazin-7-yl]-(piperazin-1-yl)methanone dihydrochloride] | 0.0904 | 0.0666 | 0.27 | 9.9 |  |  |  | 
9 | COc1cc(C)cc2cc(-c3cc(CN4CCOCC4)n4ncnc(N)c34)sc12 [Example 10, 5-(7-Methoxy-5-methyl-1-benzothiophen-2-yl)-7-(morpholin-4-ylmethyl)pyrrolo[2,1-f][1,2,4]-triazin-4-amine] | 0.0949 | 0.0777 | 0.021 | 28.1 |  |  |  | 
10 | COc1cc(C)cc2cc(-c3cc(CN4CCC(N(C)C)C4)n4ncnc(N)c34)sc12 (stereo not drawn) [Example 42] | 0.0134 |  | 0.13 | 36.3 |  |  |  | 
11 | COc1cc(C)cc2cc(-c3cc(CN4CCNC(C(=O)N(C)C)C4)n4ncnc(N)c34)sc12 (stereo not drawn) [Example 17] | 0.0273 | 0.0369 | 0.15 | 34.3 |  |  |  | 
12 | COc1cc(C)cc2cc(-c3cc(CN4CCNCC4)n4ncnc(N)c34)sc12 [Example 2, 5-(7-Methoxy-5-methyl-1-benzothiophen-2-yl)-7-(piperazin-1-ylmethyl)pyrrolo[2,1-f][1,2,4]-triazin-4-amine] |  |  |  |  | 0.0201 | 0.127 | 22.8 | 
13 | COc1cc(C)cc2cc(-c3cc(CN4CCNCC4)n4ncnc(N)c34)sc12 [Example 1, 5-(7-Methoxy-5-methyl-1-benzothiophen-2-yl)-7-(piperazin-1-ylmethyl)pyrrolo[2,1-f][1,2,4]-triazin-4-amine trihydrochloride hydrate] | 0.0099 |  |  | 17.6 |  |  |  | 0.036
14 | COc1cc(C)cc2cc(-c3cc(CN4CCNC(C)(C)C4)n4ncnc(N)c34)sc12 [Example 45] | 0.0181 |  | 0.217 | 25.9 |  |  |  | 
15 | COc1cc(C)cc2cc(-c3cc(CN4CCNC(C(N)=O)C4)n4ncnc(N)c34)sc12 (racemic) [Example 7, rac-4-{[4-Amino-5-(7-methoxy-5-methyl-1-benzothiophen-2-yl)pyrrolo[2,1-f][1,2,4]triazin-7-yl]-methyl}piperazine-2-carboxamide trihydrochloride] | 0.0078 |  | 0.044 | 43.7 |  |  |  | 
16 | COc1cc(C)cc2cc(-c3cc(CNCCC4CCCN4C)n4ncnc(N)c34)sc12 (stereo not drawn) [Example 65] | 0.0491 | 0.0495 |  | 5.9 |  |  |  | 
17 | COc1cc(C)cc2cc(-c3cc(COC[C@H]4CCCN4)n4ncnc(N)c34)sc12 [Example 110] | 0.0516 | 0.0574 |  | 4.9 |  |  |  | 
18 | COc1cc(C)cc2cc(-c3cc(CN4CCCC(O)C4)n4ncnc(N)c34)sc12 (stereo not drawn) [Example 70] | 0.062 | 0.0577 |  | 27.9 |  |  |  | 
19 | COc1cc(C)cc2cc(-c3cc(CN4CCNC(=O)C4)n4ncnc(N)c34)sc12 [Example 8, 4-{[4-Amino-5-(7-methoxy-5-methyl-1-benzothiophen-2-yl)pyrrolo[2,1-f][1,2,4]triazin-7-yl]-methyl}piperazin-2-one dihydrochloride] | 0.029 |  | 0.37 | 45.9 |  |  |  | 
20 | COc1cc(C)cc2cc(-c3cc(COCCNC(C)C)n4ncnc(N)c34)sc12 [Example 115] | 0.0786 | 0.0639 |  | 6.5 |  |  |  | 
21 | COc1cc(C)cc2cc(-c3cc(CN[C@@H](C)C(N)=O)n4ncnc(N)c34)sc12 [Example 85] | 0.0454 | 0.0221 |  | 28.2 |  |  |  | 
22 | COc1cc(C)cc2cc(-c3cc(CN4CCCN(C)CC4)n4ncnc(N)c34)sc12 [Example 89] | 0.0249 | 0.0282 |  | 28.7 |  |  |  | 
23 | COc1cc(C)cc2cc(-c3cc(CN[C@@H](CC(N)=O)C(=O)O)n4ncnc(N)c34)sc12 [Example 92] | 0.0462 | 0.0117 |  | 19.9 |  |  |  | 
24 | COc1cc(C)cc2cc(-c3cc(CN(C)CCC(N)=O)n4ncnc(N)c34)sc12 [Example 67] | 0.0531 | 0.0284 |  | 48 |  |  |  | 
25 | COc1cc(Cl)cc2cc(-c3cc(CN4CCNCC4)n4ncnc(N)c34)sc12 [Example 4, 5-(5-Chloro-7-methoxy-1-benzothiophen-2-yl)-7-(piperazin-1-ylmethyl)pyrrolo[2,1-f][1,2,4]-triazin-4-amine trihydrochloride] | 0.0347 | 0.079 |  | 26.2 |  |  |  | 
26 | COc1cc(C)cc2cc(-c3cc(CN(C)C4CCS(=O)(=O)C4)n4ncnc(N)c34)sc12 (stereo not drawn) [Example 74] | 0.0683 | 0.0871 |  | 46.9 |  |  |  | 
27 | COc1cc(C)cc2cc(-c3cc(CN4CCC(CO)CC4)n4ncnc(N)c34)sc12 [Example 73] | 0.0666 | 0.0648 |  | 17.2 |  |  |  | 
28 | CCC(N)COCc1cc(-c2cc3cc(C)cc(OC)c3s2)c2c(N)ncnn12 (stereo not drawn) [Example 112] | 0.0672 | 0.102 |  | 8.8 |  |  |  | 
